Reference: patent US11591341B2 (ALIGOS THERAPEUTICS, INC., priority 2019, dated 2023)
Read-outs that look alike come from different tables or passages of the source.

Tested on: HBV
Test: HBV-DNA Antiviral Assay Using HepG2.2.15 Cells (extracellular HBV DNA by qPCR)
Assay type: cell-based
Settings: Hepatitis B virus
Description: The following assay procedure describes the HBV antiviral assay. This assay uses HepG2.2.15 cells, which have been transfected with HBV genome, and extracellular HBV DNA quantification as endpoint. Cell viability is assessed in parallel by measuring the intracellular ATP content using the CellTiter-Glo© reagent from Promega.
On day 0, HepG2.2.15 cells were seeded in 96-well plates at a density of 6.0×10^4 cells/well (0.1 mL/well). The cells were incubated at 37° C. and 5% CO2.
On day 1, the test articles were diluted and added to cell culture wells (8 concentrations, 4-fold dilution, in duplicate). GLS4, Tenofovir and Sorafenib were used as reference compounds. 100 μL of culture medium containing the compounds was added to the plate, and the final total volume per well was 200 μL. The final concentration of DMSO in the culture medium was 0.5%. The plate map of compound treatment is shown below. The cells were cultured at 37° C. and 5% CO2 for 3 days.
On day 4, the plates were refreshed with culture media with compounds.
On day 7, cell viability was assessed using the CellTiter-Glo, and the cell culture supernatants were collected for determination of HBV DNA by qPCR.
Extracellular DNA was isolated with QIAamp 96 DNA Blood Kit per the manufacturer's manual. HBV DNA was then quantified by qPCR with HBV specific primers and probes as specified in Table 1 using the FastStart Universal MasterMix from Roche on an ABI-7900HT. The PCR cycle program consisted of 95° C. for 10 min, followed by 40 cycles at 95° C. for 15 sec and 60° C. for 1 min.
A DNA standard was prepared by dilution of the pAAV2 HBV1.3 plasmid with concentrations ranging from 10 to 1×10^7 copies/μL and used to generate a standard curve by plotting Ct value vs. the concentration of the HBV plasmid DNA standard. The quantity of HBV DNA in each sample was determined by interpolating from the standard curve.
Cell viability was calculated as follows: % Cell viability=(luminescence value of test sample−average luminescence value of blank)/(average luminescence value of 0.5% DMSO control−average luminescence of blank)×100%. HBV DNA inhibition was calculated as follows: 100-(HBV DNA copy number of test sample−HBV DNA copy number of ETV)/HBV DNA copy number of 0.5% DMSO control−HBV DNA copy number of ETV)×100%. The CC50, EC50 and EC90 values were determined by dose-response curves fitted by GraphPad Prism using “log (agonist) vs. response—Variable slope”.

[1] = 168 h, HBV DNA inhibition, HepG2.2.15 cells, extracellular HBV DNA by qPCR on day 7, read-out: EC50

O=C(Nc1ccc(F)c(Cl)c1)N1CCn2c(c3n(c2=O)CCN(Cc2ccccc2)C3=O)C1 [Example 16, 12-benzyl-N-(3-chloro-4-fluoro-phenyl)-8,13-dioxo-4,7,9,12-tetrazatricyclo[7.4.0.0^2,7]tridec-1-ene-4-carboxamide]
EC50 [1]: 500 to 5000 nM

CN1CCCn2c(c3n(c2=O)CCN(C(=O)c2ccc(Br)c(Cl)c2)C3)C1=O [Example 8, 2-(4-bromo-3-chlorobenzoyl)-11-methyl-1,2,3,4,8,9,10,11-octahydro-6H,12H-pyrazino[1′,2′:3,4]imidazo[1,5-a][1,4]diazepine-6,12-dione]
EC50 [1]: > 5000 nM

COc1ccc(CN2CCn3c(c4n(c3=O)CCN(C(=O)c3ccc(Br)cc3)C4)C2=O)cc1 [Example 20, 12-(4-bromobenzoyl)-4-[(4-methoxyphenyl)methyl]-4,7,9,12-tetrazatricyclo[7.4.0.0^2,7]tridec-1-ene-3,8-dione]
EC50 [1]: > 5000 nM

O=C(NCc1ccccc1-c1nccnn1)c1c2n(c(=O)n1-c1ccc(OC3CC3)cc1)CCN(C(=O)c1ccc(Br)c(Cl)c1)C2 [Example 463, 7-(4-bromo-3-chloro-benzoyl)-2-[4-(cyclopropoxy)phenyl]-3-oxo-N-[[2-(1,2,4-triazin-3-yl)phenyl]methyl]-6,8-dihydro-5H-imidazo[1,5-a]pyrazine-1-carboxamide]
EC50 [1]: 100 to 500 nM

C[C@@H](NC(=O)c1c2n(c(=O)n1-c1ccc(OC3CC3)cc1)CCN(C(=O)c1ccc(Br)c(Cl)c1)C2)c1ccccc1-n1cncn1 (stereo in doubt) [Example 472, 7-(4-bromo-3-chloro-benozyl)-2-[4-(cyclopropoxy)phenyl]-3-oxo-N-[rac-(1R)-1-[2-(1,2,4-triazol-1-yl)phenyl]ethyl]-6,8-dihydro-5H-imidazo[1,5-a]pyrazine-1-carboxamide]
EC50 [1]: 500 to 5000 nM

C[C@H]1Cn2c(c(C(=O)NCc3ccccc3-c3ncccn3)n(-c3ccc(-n4cccn4)cc3)c2=O)CN1C(=O)c1ccc(Br)c(C#N)c1 (stereo in doubt) [Example 471, rac-(6S)-7-(4-bromo-3-cyano-benzoyl)-6-methyl-3-oxo-2-(4-pyrazol-1-ylphenyl)-N-[(2-pyrimidin-2-ylphenyl)methyl]-6,8-dihydro-5H-imidazo[1,5-a]pyrazine-1-carboxamide]
EC50 [1]: 500 to 5000 nM

O=C1NCCCn2c1c1n(c2=O)CCN(C(=O)c2ccc(Br)cc2)C1 [Example 5, 4-(4-bromobenzoyl)-4,7,9,13-tetraazatricyclo[7.5.0.0^[2,7]]tetradec-1-ene-8,14-dione]
EC50 [1]: > 5000 nM

O=C1NCCCn2c1c1n(c2=O)CCN(C(=O)c2ccc(Br)c(F)c2)C1 [Example 6, 2-(4-bromo-3-fluorobenzoyl)-1,2,3,4,8,9,10,11-octahydro-6H,12H-pyrazino[1′,2′:3,4]imidazo[1,5-a][1,4]diazepine-6,12-dione]
EC50 [1]: > 5000 nM

CC1Cn2c(c(C(=O)NCc3ccccc3-c3ncccn3)n(-c3ccc(-n4cccn4)cc3)c2=O)CN1C(=O)c1ccc(Br)c(Cl)c1 (racemic) [Example 468, rac-(6R)-7-(4-bromo-3-chloro-benzoyl)-6-methyl-3-oxo-2-(4-pyrazol-1-ylphenyl)-N-[(2-pyrimidin-2-ylphenyl)methyl]-6,8-dihydro-5H-imidazo[1,5-a]pyrazine-1-carboxamide]
EC50 [1]: 100 to 500 nM

COc1ccc(CNC(=O)c2c3n(c(=O)n2-c2ccccc2)CCN(C(=O)c2ccc(Br)c(Cl)c2)C3)cc1 [Example 13, 7-(4-bromo-3-chlorobenzoyl)-N-[(4-methoxyphenyl)methyl]-3-oxo-2-phenyl-2H,3H,5H,6H,7H,8H-imidazo[1,5-a]pyrazine-1-carboxamide]
EC50 [1]: 500 to 5000 nM

Cc1cccnc1-c1ccccc1CNC(=O)c1c2n(c(=O)n1-c1ccc(OC3CC3)cc1)CCN(C(=O)c1ccc(Br)c(Cl)c1)C2 [Example 464, 7-(4-bromo-3-chloro-benzoyl)-2-[4-(cyclopropoxy)phenyl]-N-[[2-(3-methyl-2-pyridyl)phenyl]methyl]-3-oxo-6,8-dihydro-5H-imidazo[1,5-a]pyrazine-1-carboxamide]
EC50 [1]: 500 to 5000 nM

O=C(Nc1ccc(F)c(Cl)c1)N1CCn2c(c3n(c2=O)CCCN(Cc2ccccc2)C3=O)C1 [Example 3, 11-benzyl-N-(3-chloro-4-fluorophenyl)-6,12-dioxo-1,3,4,8,9,10,11,12-octahydro-2H,6H-pyrazino[1′,2′:3,4]imidazo[1,5-a][1,4]diazepine-2-carboxamide]
EC50 (HepG2.2.15, 168 h): 100 to 500 nM

C[C@H](NC(=O)c1c2n(c(=O)n1-c1ccc(OC3CC3)cc1)CCN(C(=O)c1ccc(Br)c(Cl)c1)C2)c1ccccc1-n1cncn1 (stereo in doubt) [Example 473, 7-(4-bromo-3-chloro-benzoyl)-2-[4-(cyclopropoxy)phenyl]-3-oxo-N-[rac-(1S)-1-[2-(1,2,4-triazol-1-yl)phenyl]ethyl]-6,8-dihydro-5H-imidazo[1,5-a]pyrazine-1-carboxamide]
EC50 [1]: > 5000 nM

O=C1NCCCn2c1c1n(c2=O)CCN(C(=O)c2ccc(Br)c(Cl)c2)C1 [Example 7, 2-(4-bromo-3-chlorobenzoyl)-1,2,3,4,8,9,10,11-octahydro-6H,12H-pyrazino[1′,2′:3,4]imidazo[1,5-a][1,4]diazepine-6,12-dione]
EC50 [1]: > 5000 nM

O=C1NCCCn2c1c1n(c2=O)CCN(C(=O)Nc2ccc(F)c(Cl)c2)C1 [Example 1, N-(3-chloro-4-fluorophenyl)-6,12-dioxo-1,3,4,8,9,10,11,12-octahydro-2H,6H-pyrazino[1′,2′:3,4]imidazo[1,5-a][1,4]diazepine-2-carboxamide]
EC50 [1]: > 5000 nM

COc1ccc(CNC(=O)c2c3n(c(=O)n2-c2ccccc2)CCN(C(=O)Nc2ccc(F)c(Cl)c2)C3)cc1 [Example 11, N^7-(3-chloro-4-fluorophenyl)-N1-[(4-methoxyphenyl)methyl]-3-oxo-2-phenyl-2H,3H,5H,6H,7H,8H-imidazo[1,5-a]pyrazine-1,7-dicarboxamide]
EC50 [1]: 100 to 500 nM

COc1ccc(CN2CCCn3c(c4n(c3=O)CCN(C(=O)c3ccc(Br)c(Cl)c3)C4)C2=O)cc1 [Example 9, 2-(4-bromo-3-chlorobenzoyl)-11-(4-methoxybenzyl)-1,2,3,4,8,9,10,11-octahydro-6H,12H-pyrazino[1′,2′:3,4]imidazo[1,5-a][1,4]diazepine-6,12-dione]
EC50 [1]: 100 to 500 nM

CC(C)NC(=O)c1c2n(c(=O)n1-c1ccccc1)CCN(C(=O)c1ccc(Br)c(Cl)c1)C2 [Example 12, 7-(4-bromo-3-chlorobenzoyl)-3-oxo-2-phenyl-N-(propan-2-yl)-2H,3H,5H,6H,7H,8H-imidazo[1,5-a]pyrazine-1-carboxamide]
EC50 [1]: > 5000 nM

COc1ccc(CN2CCn3c(c4n(c3=O)CCN(C(=O)Nc3ccc(F)c(Cl)c3)C4)C2=O)cc1 [Example 17, N-(3-chloro-4-fluoro-phenyl)-12-[(4-methoxyphenyl)methyl]-8,13-dioxo-4,7,9,12-tetrazatricyclo[7.4.0.0^2,7]tridec-1-ene-4-carboxamide]
EC50 [1]: > 5000 nM

CC(C)NC(=O)c1c2n(c(=O)n1-c1ccccc1)CCN(C(=O)Nc1ccc(F)c(Cl)c1)C2 [Example 10, N^7-(3-chloro-4-fluorophenyl)-3-oxo-2-phenyl-N1-(propan-2-yl)-2H,3H,5H,6H,7H,8H-imidazo[1,5-a]pyrazine-1,7-dicarboxamide]
EC50 [1]: 500 to 5000 nM
